Patent US11384096B2, “Substituted azetidine dihydrothienopyridines and their use as phosphodiesterase inhibitors” (UNION therapeutics A/S, priority 2017, dated 2022)

Experiments:
[1] = tested on: Human peripheral blood mononuclear cells (PBMC), TNF-α release; test: TNF-α release in LPS-stimulated PBMC; format: cell-based; conditions: 30 minutes pre-incubation, stimulated for 18 hours with lipopolysaccharide, read-out: TNF-α IC50 range
Experimental: Human peripheral blood mononuclear cells (PBMC) were isolated from buffy coats. The blood is mixed with saline at a ratio of 1:1, and the PBMC were isolated using Lymphoprep Tubes™ (Nycomed, Norway). The PBMC were suspended in RPMI1640 with 0.5% human serum albumin, pen/strep and 2 mM L-glutamine at a concentration of 5×105 c/ml. The cells were pre-incubated for 30 minutes with the test compounds in 96 well tissue culture plates and stimulated for 18 hours with lipopolysaccharide […] (Sigma). TNF-α concentration in the supernatants was measured using homogeneous time-resolved fluorescence resonance (TR-FRET). The assay is quantified by measuring fluorescence at 665 nm (proportional to TNF-α concentration) and 620 nm (control).
Results were expressed as IC50 values calculated from inhibition curves using as positive controls the secretion in LPS stimulated wells and as negative controls the secretion in unstimulated cells.

[2] = biological target: human PDE4D catalytic domain (Homo sapiens (Human), UniProt Q08499); test: PDE4 Assay (TR-FRET, cAMP cleavage); format: biochemical; conditions: 50% inhibition of substrate cleavage, read-out: PDE4 IC50 range
Chain of human PDE4D catalytic domain (Q08499 380-740 limits assumed): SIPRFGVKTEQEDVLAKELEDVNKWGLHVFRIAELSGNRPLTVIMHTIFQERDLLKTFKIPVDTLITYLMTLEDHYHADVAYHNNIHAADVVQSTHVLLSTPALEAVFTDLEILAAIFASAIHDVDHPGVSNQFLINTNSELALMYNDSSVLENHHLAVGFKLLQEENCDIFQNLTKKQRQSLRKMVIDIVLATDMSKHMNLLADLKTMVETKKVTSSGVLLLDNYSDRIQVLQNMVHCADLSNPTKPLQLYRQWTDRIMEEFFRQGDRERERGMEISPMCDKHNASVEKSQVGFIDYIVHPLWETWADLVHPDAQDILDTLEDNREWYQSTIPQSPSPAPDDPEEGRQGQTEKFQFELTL
Experimental: The human PDE4D catalytic domain (UniProt no. Q08499 [[…]]) was incubated with a mixture of non-labelled cAMP (cyclic adenosine monophosphate) and fluorescein amidite (FAM) conjugated cAMP and titrated test or reference compound. Following brief incubation the enzymatic reaction was stopped by addition of binding buffer containing nanoparticles with immobilized trivalent metal ions capable of binding 1) AMP phospho groups and 2) terbium (Tb) donor fluorophores. Subsequent excitation of the Tb donor triggers time-resolved FRET to adjacent FAM acceptor molecules resulting in light emission. In the presence of a PDE4 inhibitor, AMP generation was reduced resulting in a lower fluorescence signal. The cAMP phosphodiester is not bound by the detection system.
The results were calculated as the molar concentrations resulting in 50% inhibition of the substrate cleavage compared to controls samples, and are expressed as IC50 (nM).

Row | Structure (SMILES) | IC50 [1] | IC50 [2]
1 | [O-][S+]1CCc2nc(N3CC(c4ccc(F)cc4)C3)cc(NC3CCOCC3)c21 (stereo in doubt) [Example 1, (1R)-5-(3-(4-Fluorophenyl)azetidin-1-yl)-7-((tetrahydro-2H-pyran-4-yl)amino)-2,3-dihydrothieno[3,2-b]pyridine 1-oxide] | < 10 nM | 10 to 50 nM
2 | [O-][S+]1CCc2nc(N3CC(Oc4ccc(F)cc4)C3)cc(NC3CCOCC3)c21 (stereo in doubt) [Example 4, (1R)-5-(3-(4-Fluorophenoxy)azetidin-1-yl)-7-((tetrahydro-2H-pyran-4-yl)amino)-2,3-dihydrothieno[3,2-b]pyridine-1-oxide] | 10 to 50 nM | 10 to 50 nM
3 | COC(=O)N1CCC[C@@H](Nc2cc(N3CC(c4ccc(F)cc4)C3)nc3c2[S@+]([O-])CC3)C1 [Example 2, Methyl (3R)-3-[[(1R)-5-[3-(4-fluorophenyl)azetidin-1-yl]-1-oxido-2,3-dihydrothieno-[3,2-b]pyridin-7-yl]amino]piperidine-1-carboxylate] | < 10 nM | < 10 nM
4 | COC(=O)N1CCC[C@@H](Nc2cc(N3CC(c4ccccc4)C3)nc3c2[S@+]([O-])CC3)C1 [Example 3] | < 10 nM | < 10 nM
5 | COC(=O)N1CC[C@H](Nc2cc(N3CC(Oc4ccc(F)cc4)C3)nc3c2[S@+]([O-])CC3)C1 [Example 5, Methyl (3S)-3-[[(1R)-5-[3-(4-fluorophenoxy)azetidin-1-yl]-1-oxido-2,3-dihydrothieno[3,2-b]pyridine-7-yl]amino]pyrrolidine-1-carboxylate] | 50 to 150 nM | 50 to 150 nM
6 | CC(=O)N1CC[C@H](Nc2cc(N3CC(Oc4ccc(F)cc4)C3)nc3c2[S@+]([O-])CC3)C1 [Example 6, 1-[(3S)-3-[[(1R)-5-[3-(4-Fluorophenoxy)azetidin-1-yl]-1-oxido-2,3-dihydrothieno[3,2-b]pyridin-7-yl]amino]pyrrolidin-1-yl]ethanone] | 10 to 50 nM | < 10 nM
7 | [O-][S@+]1CCc2nc(N3CC(c4ccccc4)C3)cc(NC3CCOCC3)c21 [Example 7, (1R)-5-(3-Phenylazetidin-1-yl)-7-((tetrahydro-2H-pyran-4-yl)amino)-2,3-dihydrothieno[3,2-b]pyridine-1-oxide] | 10 to 50 nM | 10 to 50 nM
